According to ChEMBL document CHEMBL3044795, “Synthesis and biological evaluation of novel benzoquinones as potential antimicrobial agents” (2013):
≈ marks a conversion by molar mass, not a printed value.

What was measured:
Assay type in all cases: functional
[1] = system: Pseudomonas aeruginosa; assay: Antibacterial activity against Pseudomonas aeruginosa ATCC 10145 assessed as growth inhibition after 24 hr by two-fold serial dilution method; settings: ATCC 10145, 24 h
[2] = system: Pseudomonas aeruginosa; assay: Antibacterial activity against Pseudomonas aeruginosa ATCC 10145 assessed as diamater of growth inhibition zone after 24 hr by agar cup diffusion method
[3] = system: Bacillus subtilis; assay: Antibacterial activity against Bacillus subtilis ATCC 6633 assessed as diamater of growth inhibition zone after 24 hr by agar cup diffusion method
[4] = system: Candida albicans; assay: Antifungal activity against Candida albicans DSM 70014 assessed as growth inhibition after 48 hr by two-fold serial dilution method; settings: DSM 70014, 48 h
[5] = system: Escherichia coli; assay: Antibacterial activity against Escherichia coli ATCC 11775 assessed as diamater of growth inhibition zone after 24 hr by agar cup diffusion method
[6] = system: Candida albicans; assay: Antifungal activity against Candida albicans DSM 70014 assessed as diamater of growth inhibition zone after 48 hr by agar cup diffusion method
[7] = system: Escherichia coli; assay: Antibacterial activity against Escherichia coli ATCC 11775 assessed as growth inhibition after 24 hr by two-fold serial dilution method; settings: ATCC 11775, 24 h
[8] = system: Escherichia coli; assay: Antibacterial activity against Escherichia coli ATCC 11775 assessed as growth inhibition after 24 hr; settings: ATCC 11775, 24 h
[9] = system: Bacillus subtilis; assay: Antibacterial activity against Bacillus subtilis ATCC 6633 assessed as growth inhibition after 24 hr by two fold serial dilution method; settings: ATCC 6633, 24 h
[10] = system: Staphylococcus aureus; assay: Antibacterial activity against Staphylococcus aureus DSM 1104 assessed as growth inhibition after 24 hr; settings: DSM 1104, 24 h
[11] = system: Staphylococcus aureus; assay: Antibacterial activity against Staphylococcus aureus DSM 1104 assessed as diamater of growth inhibition zone after 24 hr by agar cup diffusion method
[12] = system: Staphylococcus aureus; assay: Antibacterial activity against Staphylococcus aureus DSM 1104 assessed as growth inhibition after 24 hr by two fold serial dilution method; settings: DSM 1104, 24 h
[13] = system: Pseudomonas aeruginosa; assay: Antibacterial activity against Pseudomonas aeruginosa ATCC 10145 assessed as growth inhibition after 24 hr; settings: ATCC 10145, 24 h
[14] = system: Bacillus subtilis; assay: Antibacterial activity against Bacillus subtilis ATCC 6633 assessed as growth inhibition after 24 hr; settings: ATCC 6633, 24 h
[15] = system: Candida albicans; assay: Antifungal activity against Candida albicans DSM 70014 assessed as growth inhibition after 48 hr; settings: DSM 70014, 48 h

Row | MIC [1] [µg/mL] | MIC [4] [µg/mL] | MIC [7] [µg/mL] | MIC [9] [µg/mL] | MIC [12] [µg/mL] | SMILES | diameter of the inhibition zone (DIZ) [2] [mm] | diameter of the inhibition zone (DIZ) [3] [mm] | diameter of the inhibition zone (DIZ) [5] [mm] | diameter of the inhibition zone (DIZ) [6] [mm] | MBC [8] [µg/mL] | MBC [10] [µg/mL] | diameter of the inhibition zone (DIZ) [11] [mm] | MBC [13] [µg/mL] | MBC [14] [µg/mL] | MFC [15] [µg/mL]
1 | 100 (≈ 224 µM) | 50 (≈ 112 µM) | 50 (≈ 112 µM) | 100 (≈ 224 µM) | 25 (≈ 56.1 µM) | COc1cc(/C=N/N=c2\scc(C3=CC(=O)C=CC3=O)n2-c2ccc(C)cc2)ccc1O | 15 | 15 | 15 | 15 | 50 (≈ 112 µM) | 50 (≈ 112 µM) | 14 | 100 (≈ 224 µM) | 100 (≈ 224 µM) | 50 (≈ 112 µM)
2 | 50 (≈ 112 µM) | 50 (≈ 112 µM) | 50 (≈ 112 µM) | 50 (≈ 112 µM) | 100 (≈ 224 µM) | COc1ccc(/C=N/N=c2\scc(C3=CC(=O)C=CC3=O)n2-c2ccc(C)cc2)cc1O | 14 | 14 | 14 | 15 | 50 (≈ 112 µM) | 100 (≈ 224 µM) | 15 | 50 (≈ 112 µM) | 50 (≈ 112 µM) | 100 (≈ 224 µM)
3 | 100 (≈ 222 µM) | 100 (≈ 222 µM) | 100 (≈ 222 µM) | 100 (≈ 222 µM) | 100 (≈ 222 µM) | COc1ccc(/C=N/N=c2\scc(C3=CC(=O)C=CC3=O)n2-c2ccc(Cl)cc2)cc1 | 16 | 15 | 16 | 14 | 100 (≈ 222 µM) | 100 (≈ 222 µM) | 14 | 100 (≈ 222 µM) | 100 (≈ 222 µM) | 100 (≈ 222 µM)
4 | 100 (≈ 208 µM) | 50 (≈ 104 µM) | 100 (≈ 208 µM) | 100 (≈ 208 µM) | 25 (≈ 52.1 µM) | COc1ccc(OC)c(/C=N/N=c2\scc(C3=CC(=O)C=CC3=O)n2-c2ccc(Cl)cc2)c1 | 16 | 14 | 13 | 14 | 100 (≈ 208 µM) | 50 (≈ 104 µM) | 14 | 100 (≈ 208 µM) | 100 (≈ 208 µM) | 100 (≈ 208 µM)
5 | 50 (≈ 107 µM) | 50 (≈ 107 µM) | 100 (≈ 215 µM) | 100 (≈ 215 µM) | 100 (≈ 215 µM) | COc1cc(/C=N/N=c2\scc(C3=CC(=O)C=CC3=O)n2-c2ccc(Cl)cc2)ccc1O | 15 | 14 | 16 | 15 | 100 (≈ 215 µM) | 100 (≈ 215 µM) | 16 | 100 (≈ 215 µM) | 100 (≈ 215 µM) | 50 (≈ 107 µM)
6 | 50 (≈ 107 µM) | 12.5 (≈ 26.8 µM) | 25 (≈ 53.7 µM) | 25 (≈ 53.7 µM) | 50 (≈ 107 µM) | COc1ccc(/C=N/N=c2\scc(C3=CC(=O)C=CC3=O)n2-c2ccc(Cl)cc2)cc1O | 14 | 14 | 14 | 15 | 50 (≈ 107 µM) | 50 (≈ 107 µM) | 13 | 50 (≈ 107 µM) | 50 (≈ 107 µM) | 25 (≈ 53.7 µM)
7 | – | 5 (≈ 14.5 µM) | – | – | – | Clc1ccccc1C(c1ccccc1)(c1ccccc1)n1ccnc1 [CLOTRIMAZOLE] | – | – | – | – | – | – | – | – | – | –

Row | SMILES | MIC [1] [µg/mL] | MIC [4] [µg/mL] | MIC [7] [µg/mL] | MIC [9] [µg/mL] | MIC [12] [µg/mL] | diameter of the inhibition zone (DIZ) [2] [mm] | diameter of the inhibition zone (DIZ) [3] [mm] | diameter of the inhibition zone (DIZ) [5] [mm] | diameter of the inhibition zone (DIZ) [6] [mm] | MBC [8] [µg/mL] | MBC [10] [µg/mL] | diameter of the inhibition zone (DIZ) [11] [mm] | MBC [13] [µg/mL] | MBC [14] [µg/mL] | MFC [15] [µg/mL]
8 | CC1(C)S[C@@H]2[C@H](NC(=O)[C@H](N)c3ccccc3)C(=O)N2[C@H]1C(=O)O.O.O.O [AMPICILLIN TRIHYDRATE] | 50 | – | 10 | 12.5 | 5 | – | – | – | – | – | – | – | – | – | –
